Test results from patent US6596726B1, “Tricyclic compounds capable of inhibiting tyrosine kinases of the epidermal growth factor receptor family” (Warner Lambert Company, priority 1994, dated 2003).
Where a name gives a salt, the structure may show the parent alone. Read-outs that look alike come from different tables or passages of the source. One block for each compound: values may come before it.

Columns and labels:
[1] = molecular target: T1, Human EGF receptor tyrosine kinase (Homo sapiens, UniProt P00533); test: EGF receptor tyrosine kinase inhibition (phosphorylation of PLC-gamma 1 derived peptide); type: biochemical
T1 construct: Human EGF receptor tyrosine kinase was isolated from A431 human epidermoid carcinoma cells which overexpress EGF receptor; endogenous in cells; host or cells: A431 human epidermoid carcinoma cells; purified on wheat germ agglutinin sepharose
Description: Purification of Epidermal Growth Factor Receptor Tyrosine Kinase—Human EGF receptor tyrosine kinase was isolated from A431 human epidermoid carcinoma cells which overexpress EGF receptor by the following methods. Cells were grown in roller bottles in 50% Delbuco's Modified Eagle and 50% HAM F-12 nutrient media (Gibco) containing 10% fetal calf serum. Approximately 10^9 cells were lysed in two volumes of buffer containing 20 mM 2-(4N-[2-hydroxyethyl]piperazin-1-yl)ethanesulfonic acid (hepes), pH 7.4, 5 mM ethylene glycol bis(2-aminoethyl ether) N,N,N′,N′-tetraacetic acid, 1% Triton X-100, 10% glycerol, 0.1 mM sodium orthovanadate, 5 mM sodium fluoride, 4 mM pyrophosphate, 4 mM benzamide, 1 mM dithiothreitol, 80 μg/mL aprotinin, 40 μg/mL leupeptin and 1 mM phenylmethylsulfonyl fluoride. After centrifugation at 25,000×g for 10 minutes, the supernatant was equilibrated for 2 h at 4° C. with 10 mL of wheat germ agglutinin sepharose that was previously equilibrated with 50 mM Hepes, 10% glycerol, 0.1% Triton X-100 and 150 mM NaCl, pH 7.5, (equilibration buffer). Contaminating proteins were washed from the resin with 1 M NaCl in equilibration buffer, and the enzyme was eluted with 0.5 M N-acetyl-1-D-glucosamine in equilibration buffer, followed by 1 mM urea. The enzyme was eluted with 0.1 mg/ml EGF.
The reaction was terminated by the addition of 2 mL of 75 mM phosphoric acid and passed through a 2.5 cm phosphocellulose filter disc to bind the peptide. The filter was washed five times with 75 mM phosphoric acid and placed in a vial along with 5 mL of scintillation fluid (Ready gel Beckman).

[2] = molecular target: T2, EGF receptor autophosphorylation in A431 human epidermoid carcinoma cells (Homo sapiens, UniProt P00533); test: Inhibition of EGF-induced autophosphorylation in A431 epidermoid carcinoma cells; type: cell-based
T2 construct: endogenous in cells; host or cells: A431 human epidermoid carcinoma cells (ATCC)
Description: Cells were grown to 100% confluency in 100 mm Petrie dishes (Corning). After the cells were treated for 5 minutes with either EGF (epidermal growth factor), PDGF, or bFGF (basic fibroblast growth factor) (20 ng/ml) or 1 ml of conditioned media from MDA-MB-231 cells, the media was removed and the monolayer scraped into 1 ml of ice cold lysis buffer (50 mM Hepes, pH 7.5, 150 mM NaCl, 10% glycerol, 1% triton X-100, 1 mM EDTA, 1 mM EGTA, 10 mM sodium pyrophosphate, 30 mM p-nitrophenyl phosphate, 1 mM orthovanadate, 50 mM sodium fluoride, 1 mM phenylmethylsulfonylfluoride, 10 μg/ml of aprotinin, and 10 μg/ml of leupeptin). The lysate was transferred to a microfuge tube (small centrifuge that holds 1-2 ml plastic centrifuge tubes), allowed to sit on ice 15 minutes and centrifuged 5 minutes at 10,000×g. The supernatant was transferred to a clean microfuge tube and 5 μg of antibody was added to designated samples. The tubes were rotated for 2 hours at 4° C. after which 25 μl of protein A sepharose was added and then rotation continued for at least 2 more hours. The protein A separose was washed 5 times with 50 mM Hepes, pH 7.5, 150 mM NaCl, 10% glycerol and 0.02% sodium azide. […] The extract were transferred to a microfuge tube and heated to 100° C. for 5 minutes. […] Proteins in the gel were electrophoretically transferred to nitrocellulose and the membrane was washed once in 10 mM Tris buffer, pH 7.2, 150 mM NaCl, 0.01% Azide (TNA) and blocked overnight in TNA containing 5% bovine serum albumin and 1% ovalbumin (blocking buffer). The membrane was blotted for 2 hours with the primary antibody (1 μg/ml in blocking buffer) and then washed 2 times sequentially in TNA, TNA containing 0.05% Tween-20 and 0.05% Nonidet P-40 (commercially available detergent) and TNA.
(§1) Inhibition of EGF-Induced Autophosphorylation in A431 Epidermoid Carcinoma Cells and Conditioned Media-Induced Autophosphorylation in SK-BR-3 Breast Tumor Cells by Compounds of the Current Invention
The numbers to the left of gels indicate the positions of molecular weight standards in kiloDaltons.

[3] = tested on: erbB-2, 3, 4 autophosphorylation in SK-BR-3 breast tumor cells; test: Inhibition of conditioned media-induced autophosphorylation in SK-BR-3 breast tumor cells; type: cell-based, human; details: SK-BR-3 cells, read-out: SKBR-3 IC50
Description: Cells were grown to 100% confluency in 100 mm Petrie dishes (Corning). After the cells were treated for 5 minutes with either EGF (epidermal growth factor), PDGF, or bFGF (basic fibroblast growth factor) (20 ng/ml) or 1 ml of conditioned media from MDA-MB-231 cells, the media was removed and the monolayer scraped into 1 ml of ice cold lysis buffer (50 mM Hepes, pH 7.5, 150 mM NaCl, 10% glycerol, 1% triton X-100, 1 mM EDTA, 1 mM EGTA, 10 mM sodium pyrophosphate, 30 mM p-nitrophenyl phosphate, 1 mM orthovanadate, 50 mM sodium fluoride, 1 mM phenylmethylsulfonylfluoride, 10 μg/ml of aprotinin, and 10 μg/ml of leupeptin). The lysate was transferred to a microfuge tube (small centrifuge that holds 1-2 ml plastic centrifuge tubes), allowed to sit on ice 15 minutes and centrifuged 5 minutes at 10,000×g. The supernatant was transferred to a clean microfuge tube and 5 μg of antibody was added to designated samples. The tubes were rotated for 2 hours at 4° C. after which 25 μl of protein A sepharose was added and then rotation continued for at least 2 more hours. The protein A separose was washed 5 times with 50 mM Hepes, pH 7.5, 150 mM NaCl, 10% glycerol and 0.02% sodium azide. The precipitates were resuspended with 30 μl of Laemlli buffer (Laemmli, NATURE, […], pp. 680-685, 1970), heated to 100° C. for 5 minutes and centrifuged to obtain the supernatant. Whole cell extracts were made by scraping cells grown in the wells of 6 well plates into 0.2 ml of boiling Laemmli buffer. The extract were transferred to a microfuge tube and heated to 100° C. for 5 minutes. The entire supernatant from the immunoprecipitation or 35 μl of the whole cell extract was loaded onto a polyacrylamide gel (4-20%) and electrophoresis carried out by the method of Laemlli (Laemmli, 1970). Proteins in the gel were electrophoretically transferred to nitrocellulose and the membrane was washed once in 10 mM Tris buffer, pH 7.2, 150 mM NaCl, 0.01% Azide (TNA) and blocked overnight in TNA containing 5% bovine serum albumin and 1% ovalbumin (blocking buffer). The membrane was blotted for 2 hours with the primary antibody (1 μg/ml in blocking buffer) and then washed 2 times sequentially in TNA, TNA containing 0.05% Tween-20 and 0.05% Nonidet P-40 (commercially available detergent) and TNA. The membranes were then incubated for 2 hours in blocking buffer containing 0.1 μCi/ml of [^125I] protein A and then washed again as above. After the blots were dry they were loaded into a film cassette and exposed to X-AR X-ray film for 1-7 days. Protein A is a bacterial protein that specifically bonds certain IgG subtypes and is useful in binding to and isolating antibody-antigen complexes.
as §1

[4] = tested on: B104-1-1 NIH-3T3 mouse fibroblasts transfected by the neu oncogene; test: Growth inhibition assay (antiproliferative), B104-1-1; type: cell-based; details: 72 h, B104-1-1 cells, 3 days
Excerpt: Antiproliferative Properties of Tyrosine Kinase Inhibitors IC50 (nM)
B104-1-1—NIH-3T3 mouse fibroblasts transfected by the neu oncogene: Stern et al., Science, 234, pp. 321-324 (1987);

[5] = EGF Receptor Tyrosine Kinase Inhibition, Table 1, values in nM, read-out: IC50 in EGFR
[6] = enzyme value repeated in the autophosphorylation table, read-out: EGFR IC50

Compound: 4-(3-Bromoanilino)imidazolo[4,5-h]quinazoline hydrochloride [Example 11]
IC50 ([1]; read-out: IC50 in EGFR): 272 nM

Compound: 4-(3-Bromoanilino)triazolo[4,5-g]quinazoline hydrochloride [Example 7]
IC50 [1, 5]: 4.1 nM

IC50 [1]: < 0.1 nM | IC50 ([1]; read-out: EGFR IC50 nM): < 0.1 nM | IC50 [2]: 17 nM
Compound: Brc1cccc(Nc2ncnc3cc4ccccc4cc23)c1 [Example 1, 4-(3-bromoanilino)benzo[q]quinazoline hydrochloride]

IC50 [1, 5]: 21 nM
Compound: C[C@@H](Nc1ncnc2cc3ccccc3cc12)c1ccccc1 [Example 2, 4-([R]-1-Phenylethylamino)benzo[g]quinazoline hydrochloride]

IC50 [1]: 0.76 nM
Compound: Brc1cccc(Nc2ncnc3cc4[nH]ccc4cc23)c1 [Example 3, 4-(3-Bromoanilino)pyrrolo[3,2-g]quinazoline]

IC50 ([1]; EGF Receptor Tyrosine Kinase Inhibition, Table 1, values in pM, read-out: IC50 in EGFR): 0.075 nM
Compound: Brc1cccc(Nc2ncnc3cc4ncoc4cc23)c1 [Example 5]

IC50 [3]: 10 nM
Compound: Cn1cnc2cc3c(Nc4cccc(Br)c4)ncnc3cc21 [Example 8, 4-(3-Bromoanilino)-8,N-methylimidazolo[4,5-g]quinazoline]

IC50 [1]: ~0.01 nM
Compound: Cn1cnc2cc3ncnc(Nc4cccc(Br)c4)c3cc21 [Example 9, 4-(3-Bromoanilino)-6,N-methylimidazolo[4,5-g]quinazoline]

IC50 ([1]; read-out: EGFR IC50): 1.7 nM | IC50 ([1]; read-out: IC50 in EGFR): 1.7 nM | IC50 [2]: 31 nM | IC50 [3]: ~700 nM
Compound: Brc1cccc(Nc2ncnc3cc4nccnc4cc23)c1 [Example 10, 4-(3-Bromoanilino)pyrazino[2,3-g]quinazoline]

IC50 [1, 5]: 538 nM
Compound: C[C@@H](Nc1ncnc2c1sc1ccccc12)c1ccccc1 [Example 14, 4-([R]-1-Phenylethylamino)benzothieno[3,2-d]pyrimidine]

IC50 [1, 5]: 1.8 nM | IC50 [1, 6]: 1.8 nM | IC50 [2]: 170 nM
Compound: Brc1cccc(Nc2ncnc3c2sc2ccccc23)c1 [Example 15, 4-(3-Bromoanilino)benzothieno[3,2-d]pyrimidine]

IC50 [1, 5]: 12.3 nM
Compound: O=[N+]([O-])c1ccc2sc3c(Nc4cccc(Br)c4)ncnc3c2c1 [Example 16, 4-(3-Bromoanilino)-8-nitrobenzo[b]thieno[3,2-d]pyrimidine]

IC50 [3]: 23 nM
Compound: Nc1ccc2sc3c(Nc4cccc(Br)c4)ncnc3c2c1 [Example 17, 8-Amino-4-(3-bromoanilino)benzo[b]thieno[3,2-d]pyrimidine]
IC50 [4]: 2900 nM

EGFR inhibition at fixed concentration ([1]; @ 10 nM): 36% @ 10
Compound: COc1cccc2sc3c(Nc4cccc(Br)c4)ncnc3c12.Cl [Example 18, 4-(3-Bromoanilino)-9-methoxybenzo[b]thieno[3,2-d]pyrimidine hydrochloride.]

IC50 [3]: ~1500 nM
Compound: Brc1cccc(Nc2ncnc3c2sc2ncsc23)c1 [Example 19, 4-(3-Bromoanilino)thiazolo[4′,5′; 4,5]thieno[3,2-d]pyrimidine]

IC50 ([1]; EGF Receptor Tyrosine Kinase Inhibition, Table 1, values printed in μM, read-out: IC50 in EGFR): 1300 nM
Compound: Clc1cccc(Nc2ncnc3c2sc2ncccc23)c1 [Example 20, 4-(3-Chloroanilino)pyrido[3′, 2′:4,5]thieno[3,2-d]pyrimidine]

IC50 [1]: 732 nM
Compound: Brc1cccc(Nc2ncnc3c2sc2ncccc23)c1 [Example 21, 4-(3-bromoanilino)pyrido[3′, 2′; 4,5]thieno[3,2-d]pyrimidine]

IC50 [1, 5]: 460 nM
Compound: c1ccc(CNc2ncnc3c2[nH]c2ccccc23)cc1 [Example 23, 4-Benzylaminoindolo[3,2-d]pyrimidine]

Compound: Brc1cccc(Nc2ncnc3c2[nH]c2ccccc23)c1 [Example 25, 4-(3-Bromoanilino)indolo[3,2-d]pyrimidine hydrochloride]
IC50 [3]: 1000 nM

IC50 [1, 5]: 264 nM
Compound: c1ccc(Nc2ncnc3[nH]c4ccccc4c23)cc1 [Example 27, 4-Anilinoindolo[2,3-d]pyrimidine]

Compound: Brc1cccc(Nc2ncnc3[nH]c4ccccc4c23)c1 [Example 28, 4-(3-Bromoanilino)indolo[2,3-d]pyrimidine hydrochloride]
IC50 [1, 5]: 31 nM | IC50 [1, 6]: 31 nM | IC50 [2]: 630 nM | IC50 [3]: 10 nM

IC50 [1, 5]: 732 nM | IC50 [2]: 109 nM | IC50 [3]: 1100 nM
Compound: Cn1c2ccccc2c2c(Nc3cccc(Br)c3)ncnc21 [Example 29, 4-(3-Bromoanilino)-9,N-methylindolo[2,3-d]pyrimidine.]

IC50 [1]: 220 nM
Compound: COc1ccc2[nH]c3ncnc(Nc4cccc(Br)c4)c3c2c1 [Example 31, 4-(3-Bromoanilino)6-methoxyindolo[2,3-d]pyrimidine]

IC50 [1, 5]: 160 nM
Compound: Nc1nc(Nc2cccc(Br)c2)c2c(n1)[nH]c1ccccc12 [Example 32, 2-Amino-4-(3-bromoanilino)pyrimido[2,3-d]indole]

IC50 [1]: 740 nM
Compound: Brc1cccc(Nc2ncnc3c2oc2ccccc23)c1 [Example 34, 4-(3-Bromoanilino)benzofurano[3,2-d]pyrimidine]
